Assay [1] concerns β-catenin/TCF transcriptional activity in SW480 cells. Nature of the assay: TOP-FLASH luciferase reporter assay, SW480. In kind it is cell-based, human. The note with it: SW480, 24 hours of treatment. The procedure: Cells were seeded at a density of 5 × 10^4 cells per well in 24-well tissue culture plates and incubated overnight at 37°C. Cells were transiently transfected with 0.1 μg TOP-FLASH constructs (Millipore) and 0.1 μg β-galactosidase-expressing vector (Promega). After 24 hours of transfection, cells were treated with ADT-094 or vehicle for 24 hours. At the end of treatment, cells were lysed and both luciferase and β-galactosidase activities were measured using kits from Promega. All luciferase activity was normalized to β-galactosidase activity.
(In general: A reporter such as luciferase makes a cellular process visible.)

The next assay deals with HCT116 colon tumor cells. Nature of the assay: Apoptosis assay (Caspase 3/7 Glo), HCT116. In kind it is cell-based, human. As to conditions: caspase-3 and -7, 6 hours of treatment. The procedure: Cells were plated in 96-well microtiter plates at a density of 10,000 cells per well, and allowed to attach overnight. Cells were treated with ADT-094 or vehicle, and incubated at 37°C for 6 hours. All apoptosis assays were done in 5% serum using either tumor cells or normal colonocytes. The induction of apoptosis caused by treatment was determined using Caspase 3/7 Glo Assay (Promega), which is a luminescent assay that measures substrate cleavage by caspases-3 and -7. The assay was done according to manufacturer’s specifications.

A further assay deals with T1, PDE10 (Homo sapiens, UniProt Q9Y233).
T1 construct: purchased BPS Biosciences
T1 sequence (Q9Y233 267-1055): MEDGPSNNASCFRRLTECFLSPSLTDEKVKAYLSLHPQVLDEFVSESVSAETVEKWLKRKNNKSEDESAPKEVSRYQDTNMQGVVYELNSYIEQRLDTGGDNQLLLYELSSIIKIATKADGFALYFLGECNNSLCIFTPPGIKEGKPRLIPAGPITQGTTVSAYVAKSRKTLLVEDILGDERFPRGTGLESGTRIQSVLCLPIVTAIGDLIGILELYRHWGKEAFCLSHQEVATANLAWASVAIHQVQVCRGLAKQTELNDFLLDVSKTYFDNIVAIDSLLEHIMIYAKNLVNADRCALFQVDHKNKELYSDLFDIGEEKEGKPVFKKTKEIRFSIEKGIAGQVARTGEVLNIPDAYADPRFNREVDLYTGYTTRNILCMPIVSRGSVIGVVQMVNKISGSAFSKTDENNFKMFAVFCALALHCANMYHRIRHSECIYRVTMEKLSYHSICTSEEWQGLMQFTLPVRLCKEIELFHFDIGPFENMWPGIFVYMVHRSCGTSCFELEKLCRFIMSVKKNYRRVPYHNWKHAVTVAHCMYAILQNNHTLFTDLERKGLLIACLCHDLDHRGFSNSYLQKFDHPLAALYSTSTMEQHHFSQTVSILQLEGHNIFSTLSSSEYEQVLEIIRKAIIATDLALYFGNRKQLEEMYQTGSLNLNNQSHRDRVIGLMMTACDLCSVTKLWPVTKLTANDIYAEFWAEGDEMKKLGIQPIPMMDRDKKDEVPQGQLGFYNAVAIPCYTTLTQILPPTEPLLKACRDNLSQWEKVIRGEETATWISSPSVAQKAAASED
Nature of the assay: IMAP fluorescence polarization PDE assay, recombinant PDE10. The class given is biochemical. As to conditions: recombinant enzyme. The procedure:
(§1) Recombinant PDE isozymes were purchased from BPS Biosciences. The PDE10 antibody was purchased from GeneTex, while the PDE5 antibody was purchased from Cell Signaling Technologies. Non-targeting control siRNA and PDE10 specific siRNAs were purchased from Qiagen. RNAiMAX transfection reagent was purchased from Invitrogen. DMSO was used as vehicle for all compounds unless otherwise noted. All other reagents were purchased from Sigma.
(§2) PDE activity was measured using the IMAP fluorescence polarization (FP) PDE assay (Molecular Devices) in which binding of hydrolyzed fluorescent cyclic nucleotide substrate to the IMAP reagent increases FP as described previously.
(§3) The IC50 values were determined as described previously. All experiments were repeated a minimum of three times to determine the reproducibility of the results. All error bars represent standard error of the mean (SEM). Statistical analysis of differences between samples was performed using the Student’s t-test. A P value of < 0.05 was considered statistically significant.
A general note: Polarisation of emitted light reports the rotation of a fluorescent probe.

Assay [2] has as its system β-catenin signaling in Caco-2 colon tumor cells. Put plainly: Western blotting of β-catenin, cyclin D1, survivin, Caco-2. In kind it is cell-based, human. The procedure:
(§4) Western blotting was performed as described previously. Cells were treated with ADT-094 or vehicle for 8 hours before cell lysates were collected.
(A western blot detects proteins with antibodies after separation by electrophoresis.)

Assay [3] deals with PKG activity (phospho-Ser239 VASP) in HCT116 colon tumor cells. Put plainly: Western blotting of VASP phosphorylation, HCT116. In kind it is cell-based, human. The procedure:
as §4

Assay [4] has as its system intracellular cGMP in HCT116 colon tumor cells. Nature of the assay: cGMP assay (EIA), HCT116. The class given is cell-based, human. The note with it: 45 min of treatment. The procedure:
(§5) Cells were plated at a density of 1 × 10^6 cells per 10 cm tissue culture dish, incubated for 48 hours, and treated with ADT-094 or vehicle control. After 45 min of treatment, cells were lysed and assayed for cGMP content using the cGMP Direct Biotrak EIA kit (GE Healthcare Life Sciences). The assay was done according to the manufacturer’s specifications.

The target of a further assay is T2, PDE5 (Homo sapiens, UniProt O76074).
T2 construct: purchased BPS Biosciences
Nature of the assay: IMAP fluorescence polarization PDE assay, recombinant PDE5. The class given is biochemical. As to conditions: recombinant enzyme. The procedure:
as §1, §2, §3

Assay [5] has as its system β-catenin signaling in HCT116 colon tumor cells. Put plainly: Western blotting of β-catenin, cyclin D1, survivin, HCT116. In kind it is cell-based, human. The procedure: as §4
The target in a further assay is T3, purified ovine COX-2 (Ovis aries, UniProt P79208).
T3 construct: purchased Cayman
T3 sequence (P79208 17-603): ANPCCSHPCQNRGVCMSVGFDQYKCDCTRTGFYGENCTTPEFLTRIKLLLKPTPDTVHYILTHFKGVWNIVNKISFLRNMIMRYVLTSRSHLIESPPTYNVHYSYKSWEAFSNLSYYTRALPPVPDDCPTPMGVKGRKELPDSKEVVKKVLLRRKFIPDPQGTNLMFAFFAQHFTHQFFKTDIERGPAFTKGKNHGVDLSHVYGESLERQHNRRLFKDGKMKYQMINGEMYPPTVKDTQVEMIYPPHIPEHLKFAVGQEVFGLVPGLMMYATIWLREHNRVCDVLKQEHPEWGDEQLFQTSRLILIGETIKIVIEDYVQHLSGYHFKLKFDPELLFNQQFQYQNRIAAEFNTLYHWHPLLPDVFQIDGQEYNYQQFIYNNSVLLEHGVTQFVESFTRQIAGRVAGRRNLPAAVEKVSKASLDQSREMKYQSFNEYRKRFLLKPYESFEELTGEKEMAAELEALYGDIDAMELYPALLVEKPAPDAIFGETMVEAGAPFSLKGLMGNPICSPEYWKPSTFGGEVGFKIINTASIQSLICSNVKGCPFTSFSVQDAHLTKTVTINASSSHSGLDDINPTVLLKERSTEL
Put plainly: COX-2 colorimetric assay. In kind it is biochemical. The procedure: COX-1 and COX-2 activities were measured using purified ovine COX-1 and COX-2 with colorimetric assay kits obtained from Cayman as previously reported. The activities of COX-1 and COX-2 were measured after the addition of arachidonic acid and incubation at 25°C for 5 min by absorbance at 590 nm as specified by the manufacturer.
as §3

Assay [6] concerns intracellular cGMP in normal colonocytes. Put plainly: cGMP assay (EIA), colonocytes. In kind it is cell-based, human. As to conditions: 45 min of treatment. The procedure: as §5
A further assay relates to HT29 colon tumor cells. Nature of the assay: Growth assay (Cell Titer Glo), HT29. The class given is cell-based. The note with it: Homo sapiens, HT-29; 72 hours of treatment; read-out: HT29 growth IC50. The procedure: Human colon tumor cell lines, HCT116, HT29, SW480 and Caco-2 were obtained from the American Type Culture Collection (ATCC) and grown under standard cell culture conditions in RPMI 1640 medium containing 5% serum at 37°C in a humidified atmosphere with 5% CO2. The human colonocyte line, NCM460, that is derived from normal human colon mucosa was obtained from INCELL and grown in INCELL’s enriched M3:10 medium with 10% serum as recommended by supplier. All cell lines were expanded upon delivery, and numerous aliquots of low passage cells were preserved in liquid N2. Cells were passaged no longer than 2 months. Tumor cell lines obtained from ATCC were characterized by STR profiling as performed by ATCC. The NCM460 line was characterized by INCELL as described previously (e.g. tumorigenicity testing). No additional re-authentication of the cell lines was performed except for experimental reasons (e.g. confirmation of cell doubling time, morphology, sensitivity to SS, PDE5/10 expression levels, etc).
Cells were plated in 96-well microtiter plates at a density of 5,000 cells per well. For drug treatment, cells were treated with compound or vehicle, and incubated at 37°C for 72 hours. All growth assays were performed in 5% serum unless otherwise noted. Deionized water was used as vehicle control for papaverine. For siRNA assays, cells were transfected with siRNA under the same condition described above. The effect of treatment on cell growth was measured using the Cell Titer Glo Assay as specified by the manufacturer (Promega).
as §3

As to `COc1ccc2c(c1)C(CC(=O)NCc1ccco1)=C(C)/C2=C/c1cc(OC)c(OC)c(OC)c1` [ADT-094, (Z)-N-(furan-2-ylmethyl)-2-(5-methoxy-2-methyl-1-(3,4,5-trimethoxybenzylidene)-1H-inden-3-yl) acetamide], the β-catenin/TCF transcriptional activity entry in assay [1] is “significantly inhibited”. Besides, in the assay with HCT116 colon tumor cells, the “caspase activity (apoptosis)” value is “increased caspase activity”. For the same compound, the IC50 – broadly, the concentration that inhibits the measured activity by half – on PDE10 was determined as 500 nM; at PDE5, 2400 nM; against purified ovine COX-2 (Figure 3A) it was 145000 nM; in the assay with HT29 colon tumor cells, 100 nM. Also, the “levels of cyclin D1 and survivin” value in assay [2] and in assay [5] was “also decreased” throughout. Also, the β-catenin levels entry in [2] and in assay [5] was “dose-dependent decrease” each time. The “phospho-Ser239 VASP levels (PKG activity)” value in assay [3] is reported as “increased”. For the same compound, the “intracellular cGMP levels” value in assay [4] is “significantly increased”; in assay [6], “did not significantly affect”. For the same compound, the COX-2 inhibitory activity result at purified ovine COX-2 (in words) is listed as “essentially lacks”.

These data come from publication PMC4694998, “Suppression of β-catenin/TCF transcriptional activity and colon tumor cell growth by dual inhibition of PDE5 and 10” (Oncotarget, 2015).
